Consider four compounds from US20050107386A1, “Methods of treating diseases and disorders by targeting multiple kinases” (priority 2003, published 2005).

What all share (format): biochemical
In one assay the test system is panel of 50 kinases. Put plainly: Panel of 50 kinases (Table 2), count of inhibited kinases. The conditions noted are these: compared to a no-compound control; 3 μM. As to the method:
(§1) Six compounds (presumptive single agents) were tested against a panel of 50 kinases. The results are presented in Table 2; numbers for each kinase indicate the percent of control kinase activity in the presence of a 3μM concentration of the indicated agent.
CC006 (5-(5-Cyclopentyl-1H-[1,2,4]triazol-3-yl)-3-(4-fluoro-phenyl)-1H-indazole) and CC007 (3-(5-(1H-1,2,4-triazol-3-yl)(1H-indazol-3-yl))phenyl-N-cyclopentylcarboxamide) were included as controls.

A further assay deals with T1, PKCμ(h) (Homo sapiens, UniProt Q15139).
T1 sequence (Q15139 1-912): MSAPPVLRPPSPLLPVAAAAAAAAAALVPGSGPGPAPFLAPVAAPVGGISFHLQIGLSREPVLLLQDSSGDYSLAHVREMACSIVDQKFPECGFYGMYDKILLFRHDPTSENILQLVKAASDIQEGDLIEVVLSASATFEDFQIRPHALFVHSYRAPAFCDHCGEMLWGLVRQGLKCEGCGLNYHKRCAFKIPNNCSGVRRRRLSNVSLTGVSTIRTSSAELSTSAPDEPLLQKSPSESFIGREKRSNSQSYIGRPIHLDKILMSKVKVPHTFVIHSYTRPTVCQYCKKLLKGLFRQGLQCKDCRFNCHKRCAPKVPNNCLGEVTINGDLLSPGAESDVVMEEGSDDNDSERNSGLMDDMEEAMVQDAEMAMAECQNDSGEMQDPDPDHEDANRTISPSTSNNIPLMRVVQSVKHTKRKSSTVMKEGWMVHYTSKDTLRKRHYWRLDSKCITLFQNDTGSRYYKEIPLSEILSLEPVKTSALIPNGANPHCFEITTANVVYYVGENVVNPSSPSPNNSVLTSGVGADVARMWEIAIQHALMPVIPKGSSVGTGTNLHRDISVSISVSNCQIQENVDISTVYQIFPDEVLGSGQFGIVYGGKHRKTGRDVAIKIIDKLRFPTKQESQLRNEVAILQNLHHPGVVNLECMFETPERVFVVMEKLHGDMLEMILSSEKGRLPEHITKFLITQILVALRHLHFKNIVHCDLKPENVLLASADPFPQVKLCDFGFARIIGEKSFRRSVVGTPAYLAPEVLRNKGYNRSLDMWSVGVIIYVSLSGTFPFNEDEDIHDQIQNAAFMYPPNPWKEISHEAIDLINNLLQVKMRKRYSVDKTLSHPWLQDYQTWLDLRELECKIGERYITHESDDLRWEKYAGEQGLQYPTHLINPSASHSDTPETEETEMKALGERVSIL
Briefly: PKCμ(h) kinase assay. Conditions: 3 μM; percent of control kinase activity. The method, then: as §1
(§2) Agents that target two or more different kinases are useful in the methods of the invention as described elsewhere herein. Such compounds may be identified, and their effect on certain kinases may be identified, using the assays briefly described below in Examples 4-83. Each of these assays was carried out as described in Davies et al., Biochem. J., 351:95-105 (2000). All assays were carried out at 10 μM ATP unless otherwise noted.

A further assay has as its target PKA(h) (Homo sapiens, UniProt P17612). Put plainly: PKA(h) kinase assay. Conditions: 3 μM; percent of control kinase activity. The method, then: as §1, §2
In a final reaction volume of 25 μl, PKA(h) (5-10 mU) is incubated with 8 mM MOPS pH 7.0, 0.2 mM EDTA, 30 μM LRRASLG (Kemptide; SEQ ID NO:10), 10 mM MgAcetate and [γ-^33P-ATP] (specific activity approx. 500 cpm/pmol, concentration as required). The reaction is initiated by the addition of Mg^2+ [γ-^33P-ATP]. After incubation for 40 minutes at room temperature, the reaction is stopped by the addition of 5 [Il of a 3% phosphoric acid solution. 10 μl of the reaction is then spotted onto a P30 filtermat and washed three times for 5 minutes in 50 mM phosphoric acid and once in methanol prior to drying and scintillation counting.

A further assay deals with T2, Aurora-A(h) (Homo sapiens, UniProt O14965).
T2 sequence (O14965 1-403): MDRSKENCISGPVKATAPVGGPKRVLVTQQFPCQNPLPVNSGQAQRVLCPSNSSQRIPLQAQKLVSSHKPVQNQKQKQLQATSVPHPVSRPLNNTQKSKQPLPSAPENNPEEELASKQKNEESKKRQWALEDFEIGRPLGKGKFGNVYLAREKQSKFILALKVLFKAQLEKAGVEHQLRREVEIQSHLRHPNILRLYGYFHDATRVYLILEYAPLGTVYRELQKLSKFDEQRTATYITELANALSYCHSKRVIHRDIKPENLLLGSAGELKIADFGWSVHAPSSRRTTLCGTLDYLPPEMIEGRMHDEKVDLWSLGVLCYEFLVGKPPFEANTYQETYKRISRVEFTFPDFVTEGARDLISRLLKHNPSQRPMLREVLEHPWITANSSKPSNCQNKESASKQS
Put plainly: Aurora-A(h) kinase assay. The conditions noted are these: 3 μM; percent of control kinase activity. As to the method:
as §1, §2

A further assay concerns the target CDK7/cyclinH/MAT1 (Homo sapiens, UniProt P50613). Put plainly: CDK7/cyclinH/MAT1 kinase assay. The conditions noted are these: 3 μM; percent of control kinase activity. As to the method:
as §1, §2
(§3) In a final reaction volume of 25 μl, CDK7/cyclinH/MAT1 (h) (5-10 mU) is incubated with 8 mM MOPS pH 7.0, 0.2 mM EDTA, 500 μM peptide, 10 mM MgAcetate and [γ-^33P-ATP] [specific activity approx. 500 cpm/pmol, concentration as required). The reaction is initiated by the addition of Mg^2+ [γ-33 P-ATP]. After incubation for 40 minutes at room temperature, the reaction is stopped by the addition of 5 μl of a 3% phosphoric acid solution. 10 μl of the reaction is then spotted onto a P30 filtermat and washed three times for 5 minutes in 75 mM phosphoric acid and once in methanol prior to drying and scintillation counting.

The next assay addresses CDK2/cyclinA(h) (Homo sapiens, UniProt P24941). Briefly: CDK2/cyclinA(h) kinase assay. Conditions: for Inhibitory activity (% of control), CDK2/cyclinA(h): 3 μM, percent of control kinase activity. The method, then: as §1, §2
as §3, with “CDK2/cyclinA” for “CDK7/cyclinH/MAT1”, “0.1 mg/ml histone H1,” for “500 μM peptide,”, “[γ-^33p-ATP] (specific” for “[γ-^33P-ATP] [specific”, “[γ-^33P-ATP].” for “[γ-33 P-ATP].”

CDK7/cyclinH/MAT1, sequence (P50613 whole entry): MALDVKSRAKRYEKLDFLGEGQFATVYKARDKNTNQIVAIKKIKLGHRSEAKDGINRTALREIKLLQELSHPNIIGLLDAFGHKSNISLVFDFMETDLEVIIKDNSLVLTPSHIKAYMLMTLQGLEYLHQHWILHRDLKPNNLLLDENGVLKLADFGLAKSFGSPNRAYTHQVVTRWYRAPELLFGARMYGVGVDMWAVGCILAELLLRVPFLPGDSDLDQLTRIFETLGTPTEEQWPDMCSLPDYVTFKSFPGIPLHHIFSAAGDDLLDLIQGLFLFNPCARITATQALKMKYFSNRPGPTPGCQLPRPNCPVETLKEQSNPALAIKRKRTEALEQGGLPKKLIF
CDK7/cyclinH/MAT1, sequence (P51946 whole entry partner): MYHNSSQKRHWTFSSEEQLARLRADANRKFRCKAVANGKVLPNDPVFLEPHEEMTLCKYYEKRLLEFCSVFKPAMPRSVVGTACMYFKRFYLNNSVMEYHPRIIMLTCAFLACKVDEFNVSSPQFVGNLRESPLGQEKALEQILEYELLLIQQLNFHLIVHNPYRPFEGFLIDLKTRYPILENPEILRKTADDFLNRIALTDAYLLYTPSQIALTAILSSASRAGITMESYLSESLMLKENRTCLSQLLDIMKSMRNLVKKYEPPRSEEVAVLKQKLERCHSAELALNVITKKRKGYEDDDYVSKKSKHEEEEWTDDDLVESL
CDK7/cyclinH/MAT1, sequence (P51948 whole entry partner): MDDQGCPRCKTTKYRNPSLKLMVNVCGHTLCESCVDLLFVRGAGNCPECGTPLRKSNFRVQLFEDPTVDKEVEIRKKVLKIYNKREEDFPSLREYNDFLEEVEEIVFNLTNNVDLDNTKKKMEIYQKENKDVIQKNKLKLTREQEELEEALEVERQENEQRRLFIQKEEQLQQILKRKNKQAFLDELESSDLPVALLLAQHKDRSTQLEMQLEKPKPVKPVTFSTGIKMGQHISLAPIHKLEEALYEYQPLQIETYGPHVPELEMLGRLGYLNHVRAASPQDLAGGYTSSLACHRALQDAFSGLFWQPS

With `CC(C)Cc1nc(-c2ccc3[nH]nc(-c4ccc5cc(OCCN6CCCC6)ccc5c4)c3c2)n[nH]1` [CC002, 5-(5-Isobutyl-1H-[1,2,4]Triazol-3-yl)-3-[6-(2-Pyrrolidin-1-yl-Ethoxy)-Naphthalen-2-yl]-1H-Indazole], the “number of kinases listed in Table 2 whose activity is inhibited by more than 95%” value with panel of 50 kinases was 29.

Take `CCN1CCC[C@H]1COc1ccc2cc(-c3n[nH]c4ccc(-c5nc(CC(C)(C)C)n[nH]5)cc34)ccc2c1` [CC005, 2-[((2s)-1-ethylpyrrolidin-2-yl)methoxy]-6-{5-[3-(2,2-Dimethylpropyl)(1H-1,2,4,-triazol-5-yl)](1H-indazol-3-yl)}naphthalene]: on PKCμ(h), the “Inhibitory activity (% of control), PKCμ(h)” value is reported as 2 % of control. Moreover, the “Inhibitory activity (% of control), PKA(h)” value on PKA(h) is given as 50 % of control. In addition, on Aurora-A(h), the “Inhibitory activity (% of control), Aurora-A(h)” value is on record as 0 % of control. Moreover, on CDK7/cyclinH/MAT1, the “Inhibitory activity (% of control), CDK7/cyclinH/MAT1” value is reported as 7 % of control. On CDK2/cyclinA(h), the “Inhibitory activity (% of control), CDK2/cyclinA(h)” value is on record as 2 % of control.

Take `COc1ccc2cc(-c3n[nH]c4ccc(-c5n[nH]c(CN6CCOCC6)n5)cc34)ccc2c1` [CC001, 3-(6-Methoxynaphthalen-2-yl)-5-(5-Morpholin-4-Ylmethyl-1H-[1,2,4]Triazol-3-yl)-1H-Indazole]: at PKCμ(h), the “Inhibitory activity (% of control), PKCμ(h)” value is 6 % of control. For the same compound, the “Inhibitory activity (% of control), PKA(h)” value on PKA(h) is 60 % of control. Besides, at Aurora-A(h), the “Inhibitory activity (% of control), Aurora-A(h)” value is listed as 7 % of control. Moreover, the “Inhibitory activity (% of control), CDK7/cyclinH/MAT1” value on CDK7/cyclinH/MAT1 was 13 % of control. Further, the “Inhibitory activity (% of control), CDK2/cyclinA(h)” value on CDK2/cyclinA(h) is listed as 4 % of control. In addition, the “number of kinases listed in Table 2 whose activity is inhibited by more than 95%” value with panel of 50 kinases came to 16.

With `CC(C)(C)Cc1nc(-c2ccc3[nH]nc(-c4ccc5cc(OCc6ccccn6)ccc5c4)c3c2)n[nH]1` [CC004, 5-[5-(2,2-Dimethyl-propyl)-1H-[1,2,4]triazol-3-yl]-3-[6-(pyridine-2-ylmethoxy)-naphthalen-2-yl]-1H-indazole], the “Inhibitory activity (% of control), PKCμ(h)” value at PKCμ(h) is listed as 34 % of control. For the same compound, the “Inhibitory activity (% of control), PKA(h)” value on PKA(h) is given as 91 % of control. For the same compound, the “Inhibitory activity (% of control), Aurora-A(h)” value on Aurora-A(h) is recorded as 7 % of control. For the same compound, the “Inhibitory activity (% of control), CDK7/cyclinH/MAT1” value at CDK7/cyclinH/MAT1 was 19 % of control. Besides, the “Inhibitory activity (% of control), CDK2/cyclinA(h)” value on CDK2/cyclinA(h) is 2 % of control. Moreover, the “inhibitory activity against CDK2, in words” value against CDK2/cyclinA(h) (summary of Table 2) is recorded as “good inhibitory activity”. Further, the “number of kinases listed in Table 2 whose activity is inhibited by more than 95%” value in the assay on panel of 50 kinases is listed as 16.
